Laboratory results: US8940720B2, “Macrocycles as factor XIa inhibitors” (Bristol-Myers Squibb Company, priority 2010, dated 2015)
Structures can show the parent of a compound that is named as a salt. Where two headings read alike, the source gives them in different places.

Key:
[1] = biological target: purified human Factor XIa (Homo sapiens (Human), UniProt P03951); test: Factor XIa enzyme inhibition assay (chromogenic substrate S-2366); format: biochemical; conditions: substrate S-2366, pH 7.4
Procedure: The effectiveness of compounds of the present invention as inhibitors of the coagulation Factors XIa, VIIa, IXa, Xa, XIIa, plasma kallikrein or thrombin, can be determined using a relevant purified serine protease, respectively, and an appropriate synthetic substrate. The rate of hydrolysis of the chromogenic or fluorogenic substrate by the relevant serine protease was measured both in the absence and presence of compounds of the present invention. […] A decrease in the rate of absorbance or fluorescence change in the presence of inhibitor is indicative of enzyme inhibition. Such methods are known to one skilled in the art. The results of this assay are expressed as the inhibitory constant, Ki.
Values of Ki were determined by allowing the protease to react with the substrate in the presence of the inhibitor. Reactions were allowed to go for periods of 20-180 minutes (depending on the protease) and the velocities (rate of absorbance or fluorescence change versus time) were measured. The following relationships were used to calculate Ki values: (vo−vs)/vs=I/(Ki(1+S/Km)) for a competitive inhibitor with one binding site; or vs/vo=A+((B−A)/1+((IC50/(I)n))); and Ki=IC50/(1+S/Km) for a competitive inhibitor where: […]

[2] = from C=CCCC(=O)Nc1cc(NC(=O)OC)ccc1-c1nnc(Cl)cc1C(CC=C)NC(=O)OC(C)(C)C; rcm bond; 12-membered ring; Grubbs II (0.3 eq); DCM; 6.6 mM

purified human Factor XIa, sequence (P03951 388-625): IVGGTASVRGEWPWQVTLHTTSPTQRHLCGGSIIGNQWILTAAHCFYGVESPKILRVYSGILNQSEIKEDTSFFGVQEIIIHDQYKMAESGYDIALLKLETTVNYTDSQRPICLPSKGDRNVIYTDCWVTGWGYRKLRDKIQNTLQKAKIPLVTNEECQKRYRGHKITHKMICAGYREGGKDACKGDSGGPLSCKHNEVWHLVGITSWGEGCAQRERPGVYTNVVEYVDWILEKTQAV
purified human Factor XIa, sequence (P03951 19-387 partner): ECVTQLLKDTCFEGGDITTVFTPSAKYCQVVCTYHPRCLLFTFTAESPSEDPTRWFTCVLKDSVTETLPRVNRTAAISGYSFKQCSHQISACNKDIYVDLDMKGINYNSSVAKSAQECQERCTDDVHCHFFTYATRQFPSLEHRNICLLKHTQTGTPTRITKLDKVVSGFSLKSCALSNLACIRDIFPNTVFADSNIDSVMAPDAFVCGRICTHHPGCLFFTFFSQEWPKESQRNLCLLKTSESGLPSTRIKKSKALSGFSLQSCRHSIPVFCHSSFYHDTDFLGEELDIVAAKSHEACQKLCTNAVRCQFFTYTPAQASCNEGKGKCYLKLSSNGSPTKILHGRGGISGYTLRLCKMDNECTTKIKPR

Row | SMILES | Ki [1] [nM] | also measured
1 | COC(=O)Nc1ccc2c(c1)N[C@@H](C(=O)OC)CC=CC[C@H](NC(=O)OC(C)(C)C)c1nc-2cn1COCC[Si](C)(C)C | – | ring closure, yield of all isomers (from C=CC[C@H](NC(=O)OC(C)(C)C)c1nc(-c2ccc(NC(=O)OC)cc2N[C@H](CC=C)C(=O)OC)cn1COCC[Si](C)(C)C, rcm bond, Grubbs II, DCE, 40.0 mM, 120.0 °C, 0.33 h): 30%
2 | COC(=O)c1ccc2c(c1)OCCNC(=O)CC(NC(=O)OC(C)(C)C)c1cc-2nnc1Cl (stereo not drawn) | – | ring closure, yield of all isomers (from COC(=O)c1ccc(-c2cc(C(CC(=O)O)NC(=O)OC(C)(C)C)c(Cl)nn2)c(OCCN)c1, amide bond, BOP, DCM, 1.28 mM, 25.0 °C, 2.5 h): 15.3%
3 | COC(=O)Nc1ccc2c(c1)NC(=O)CCC=CC[C@H](NC(=O)OC(C)(C)C)c1cc-2ccn1 | – | ring closure, yield of all isomers (from C=CCCC(=O)Nc1cc(NC(=O)OC)ccc1-c1ccnc([C@H](CC=C)NC(=O)OC(C)(C)C)c1, rcm bond, Grubbs II, DCM, 0.99 mM, 40.0 °C, 1.5 h): 75%
4 | COC(=O)Nc1ccc2c(c1)NC(=O)CCCC[C@H](NC(=O)c1ccc3cccnc3c1)c1nc-2c[nH]1 [Example I-262] | 675 | –
5 | COC(=O)Nc1ccc2c(c1)NC(=O)CCC(C)=CC[C@H](NC(=O)OC(C)(C)C)c1nc-2cn1COCC[Si](C)(C)C | – | ring closure, yield of all isomers (from C=CC[C@H](NC(=O)OC(C)(C)C)c1nc(-c2ccc(NC(=O)OC)cc2NC(=O)CCC(=C)C)cn1COCC[Si](C)(C)C, rcm bond, Grubbs II, DCE, 105.0 mM, 120.0 °C, 0.33 h): 34.6%
6 | CCOC(=O)[C@@H]1CCCC[C@H](NC(=O)/C=C/c2c(-n3cnnn3)ccc(Cl)c2F)c2cc(ccn2)-c2ccc(NC(=O)OCCOC)cc2N1 [II-43] | 938 | –
7 | COC(=O)Nc1ccc2c(c1)NC(=O)CC/C=C/CC(NC(=O)OC(C)(C)C)c1cc(Cl)nnc1-2 (stereo not drawn) | – | ring closure, isolated yield [2]: 56%; ring closure, yield of all isomers (from C=CCCC(=O)Nc1cc(NC(=O)OC)ccc1-c1nnc(Cl)cc1C(CC=C)NC(=O)OC(C)(C)C, rcm bond, Grubbs II, DCM, 6.6 mM, 40.0 °C, 1.0 h): 56%
8 | COC(=O)Nc1ccc2c(c1)N[C@@H](C(F)(F)F)CCCC[C@H](NC(=O)/C=C/c1cc(Cl)ccc1-n1cnnn1)c1nc-2c(Cl)[nH]1 [Example I-60] | 616 | –
9 | COC(=O)Nc1ccc2c(c1)NC(=O)C/C=C/CC(NC(=O)OC(C)(C)C)c1cc-2nc(C)n1 (stereo not drawn) | – | ring closure, yield of all isomers (from C=CCC(=O)Nc1cc(NC(=O)OC)ccc1-c1cc(C(CC=C)NC(=O)OC(C)(C)C)nc(C)n1, rcm bond, Grubbs II, DCM, 0.5 mM, 40.0 °C, 4.0 h): 22%
10 | COC(=O)Nc1ccc2c(c1)NC(C(N)=O)C(C)CCC[C@H](NC(=O)/C=C/c1cc(Cl)ccc1-n1cnnn1)c1nc-2c[nH]1 (stereo partly drawn) [Example I-114] | 296 | –
11 | O=C(/C=C/c1cc(Cl)ccc1-n1cnnn1)N[C@H]1CCCCC(=O)Nc2cnccc2-c2ccnc1c2 [Example 138, (E)-3-(5-Chloro-2-tetrazol-1-yl-phenyl)-N-((S)-9-oxo-5,8,16-triaza-tricyclo[13.3.1.0^2,7]nonadeca-1(19),2,4,6,15,17-hexaen-14-yl)-acrylamide, 2 TFA salt] | 20 | –
12 | CCOC(=O)[C@H]1CCCC[C@H](NC(=O)/C=C/c2cc(Cl)ccc2-n2cnnn2)c2nc(c(C)[nH]2)-c2ccc(NC(=O)OC)cc2N1 [Example I-242, (9R,14S)-14-[(E)-3-(5-Chloro-2-tetrazol-1-yl-phenyl)-acryloylamino]-5-methoxycarbonylamino-17-methyl-8,16,18-triaza-tricyclo[13.2.1.0^2,7]octadeca-1(17),2,4,6,15(18)-pentaene-9-carboxylic acid ethyl ester, bis-trifluoroacetic acid salt] | 456 | –
13 | CC(C)(C)OC(=O)N[C@H]1CC=CCCCc2ccccc2-c2cn(COCC[Si](C)(C)C)c1n2 | – | ring closure, yield of all isomers (from C=CCCCc1ccccc1-c1cn(COCC[Si](C)(C)C)c([C@H](CC=C)NC(=O)OC(C)(C)C)n1, rcm bond, Grubbs II, DCM, 0.97 mM, 40.0 °C, 1.0 h): 62.9%
14 | COC(=O)Nc1ccc2c(c1)NC(=O)CCCCC(NC(=O)/C=C/c1cc(Cl)ccc1-n1cnnn1)c1cc-2nc(C)n1 (stereo not drawn) [II-10] | 23 | –
15 | CC(C)(C)OC(=O)N[C@H]1CC=CCCC(=O)Nc2ccccc2C2=NN=C1O2 (mixture of isomers) | – | ring closure, yield of all isomers (from C=CCCC(=O)Nc1ccccc1-c1nnc([C@H](CC=C)NC(=O)OC(C)(C)C)o1, rcm bond, Grubbs II, DCM, 4.8 mM, 75.0 °C, 1.5 h): 27%
16 | COC(=O)Nc1ccc2c(c1)CCCN(C)C(=O)C[C@H](NC(=O)OC(C)(C)C)c1nc-2cn1COCC[Si](C)(C)C | – | ring closure, yield of all isomers (from CNCCCc1cc(NC(=O)OC)ccc1-c1cn(COCC[Si](C)(C)C)c([C@H](CC(=O)O)NC(=O)OC(C)(C)C)n1, amide bond, BOP, DCM, 8.64 mM, 25.0 °C, 2.0 h): 39.4%
17 | COC(=O)Nc1ccc2c(c1)NC(=O)CCN(C(=O)OC(C)(C)C)C[C@H](NC(=O)OCc1ccccc1)c1nc-2cn1COCC[Si](C)(C)C | – | ring closure, yield of all isomers (from COC(=O)Nc1ccc(-c2cn(COCC[Si](C)(C)C)c([C@H](CN(CCC(=O)O)C(=O)OC(C)(C)C)NC(=O)OCc3ccccc3)n2)c(N)c1, amide bond, BOP, DCM, 0.93 mM, 25.0 °C, 5.0 h): 87%
18 | CC(C)(C)OC(=O)N[C@H]1CC=CCCOc2ccccc2-c2cn(COCC[Si](C)(C)C)c1n2 | – | ring closure, yield of all isomers (from C=CCCOc1ccccc1-c1cn(COCC[Si](C)(C)C)c([C@H](CC=C)NC(=O)OC(C)(C)C)n1, rcm bond, Grubbs II, DCM, 1.02 mM, 40.0 °C, 1.0 h): 29%

Second part, led by results:

Row | Ki [1] [nM] | SMILES | also measured
19 | < 5 | COC(=O)Nc1ccc2c(c1)NC(=O)CC/C=C/C[C@H](NC(=O)[C@H]1CC[C@H](CN)CC1)c1cc-2ccn1 [Example 90, {(E)-(S)-15-[(4-Aminomethyl-cyclohexanecarbonyl)-amino]-9-oxo-8,17-diaza-tricyclo[14.3.1.0^2,7]icosa-1(20),2(7),3,5,12,16,18-heptaen-5-yl}-carbamic acid methyl ester] | –
20 | 736 | CCOC(=O)CN1CCCC[C@H](NC(=O)/C=C/c2cc(Cl)ccc2-n2cnnn2)c2nc(c[nH]2)-c2ccc(NC(=O)OC)cc2C1 [Example I-121] | –
21 | 102 | COC(=O)c1ccc2c(c1)-c1c[nH]c(n1)[C@@H](NC(=O)/C=C/c1cc(Cl)ccc1-n1cnnn1)C/C=C/CCC(=O)N2 [Example I-284] | –
22 | < 5 | COC(=O)Nc1ccc2c(c1)N[C@@H](C(=O)N1CCN(C)CC1)CCCC[C@H](NC(=O)/C=C/c1cc(Cl)ccc1-n1cnnn1)c1cc-2ccn1 [II-35] | –
23 | 111 | COC(=O)Nc1ccc2c(c1)NC(=O)CCCC[C@H](NC(=O)c1c(F)cc(C)cc1F)c1cc-2ccn1 [II-4] | –
24 | 2920 | COC(=O)Nc1ccc2c(c1)NC(=O)CCCC[C@H](NC(=O)c1ccc3ncccc3c1)c1nc-2c[nH]1 [Example I-14] | –
25 | < 5 | CCOC(=O)[C@H]1CCCC[C@H](NC(=O)/C=C/c2cc(Cl)ccc2-n2cnnn2)c2nc(c(C#N)[nH]2)-c2ccc(NC(=O)OC)cc2N1 [Example I-251, (9R,14S)-14-[(E)-3-(5-Chloro-2-tetrazol-1-yl-phenyl)-acryloylamino]-17-cyano-5-methoxycarbonylamino-8,16,18-triaza-tricyclo[13.2.1.0^2,7]octadeca-1(17),2,4,6,15(18)-pentaene-9-carboxylic acid ethyl ester, 2 TFA] | –
26 | 21 | COC(=O)Nc1ccc2c(c1)N[C@@H](C(=O)NCc1ccccn1)CCCC[C@H](NC(=O)/C=C/c1cc(Cl)ccc1-n1cnnn1)c1cncc-2c1 [II-58] | –
27 | < 5 | COC(=O)Nc1ccc2c(c1)NC(=O)CCCC[C@H](NC(=O)/C=C/c1cc(Cl)ccc1-n1ccnn1)c1nc-2c[nH]1 [Example I-5] | –
28 | < 5 | COC(=O)Nc1ccc2c(c1)NC(=O)CCCC[C@H](NC(=O)c1c(F)cc3c(ncn3C)c1F)c1nc-2c(F)[nH]1 [Example I-21] | –
29 | 2170 | COC(=O)Nc1ccc2c(c1)NC(C(F)(F)F)CC/C=C/C[C@H](NC(=O)/C=C/c1cc(Cl)ccc1-n1cnnn1)c1nc-2c[nH]1 (stereo partly drawn) [Example I-211] | –
30 | 636 | COC(=O)Nc1ccc2c(c1)CCC/C=C/C[C@H](NC(=O)/C=C/c1cc(Cl)ccc1-n1cnnn1)c1nc-2c[nH]1 [Example 4, {(E)-(S)-14-[(E)-3-(5-Chloro-2-tetrazol-1-yl-phenyl)-acryloylamino]-16,18-diaza-tricyclo[13.2.1.0^2,7]octadeca-1(17),2,4,6,11,15(18)-hexaen-5-yl}-carbamic acid methyl ester] | –
31 | < 5 | COC(=O)Nc1ccc2c(c1)NC(=O)CC/C=C/C[C@H](NC(=O)c1ccc3c(c1)CCNC3)c1nc-2c[nH]1 [Example I-151] | –
32 | < 5 | COC(=O)Nc1ccc2c(c1)NC(C(F)(F)F)CCCC[C@H](NC(=O)C1CCC(CN)CC1)c1cc-2ccn1 (stereo partly drawn) [II-13] | –
